Measurements published in patent US20250066388A1, “1,3,4,7-TETRAHYDRO-2H-PYRROLO[3',2':5,6]PYRIDO[2,3-B][1,4]OXAZEPINE BCL-2 INHIBITORS” (AbbVie Inc., priority 2022, published 2025).
pEC50, pKi: −log10 of the molar value. “And” between values parts separate entries of the source, which are not always exact repeats. Equal entries are not always repeated. Where two headings read alike, the source gives them in different places.

Key:
Bcl-2 protein = Bcl-2 protein (Homo sapiens (Human), UniProt P10415); assay: TR-FRET binding assay, Bcl-2; conditions: F-Bak peptide probe, GST-Bcl-2
[1] = Bioavailability study: pharmacokinetics after single intravenous or oral dose in mouse; assay type: in vivo; conditions: for half-life: CD-1, mouse, plasma, 1 mg/kg
Experimental: Studies were conducted to evaluate the pharmacokinetic profiles of Example 25 herein and Example 2 in WO 2019/040550 after single intravenous or oral dose in mouse. CD-1 mice (male) were obtained from Charles River Laboratories (Wilmington, MA).
The pharmacokinetics of Example 25 herein and Example 2 in WO 2019/040550 were evaluated following single 1 mg/kg intravenous or oral doses in mouse. Example 25 herein and Example 2 in WO 2019/040550 were prepared as a solution in DMSO: Tween 80: PEG-400: Dextrose 5% in Water (5:5:20:70, v/v) for the IV and oral dose mouse studies. The intravenous dose was administered as a slow bolus to the penile vein under isoflurane anesthesia. The oral doses were administrated by gavage. Serial blood samples were obtained […], 0.25, 0.5, 1.0, 4, 6, 9, 12, 24, 32 and 48 hours post dosing and […]. Plasma was separated by centrifugation and stored frozen (<−15° C.) until analysis.
HPLC-MS/MS bioanalytical methods were utilized for the quantitation of Example 25 herein and Example 2 in WO 2019/040550 concentration in plasma. The analytical methods used protein precipitation to extract compound from plasma. All samples were combined with a minimum two volume equivalents of organic solvent containing internal standard, vortexed and then centrifuged to pellet the proteins. Supernatants were used for subsequent analysis by liquid chromatography-tandem mass spectrometry (LC-MS/MS). Studies involving quantitative analysis employed spiked standards in plasma that were processed simultaneously with the samples.
Analytes were separated using reverse phase chromatography on a C8 or C18 column prior to analysis on an API5500™ (or higher) mass spectrometer with a Turbo-Ion Spray source. Peak areas were determined using Sciex Analyst™ 1.6 (or higher) software or Sound Analytics DiscoveryQuant™ 2.0 (or higher) software. Actual concentrations (when required) were calculated by regression analysis of the peak area ratio (parent/internal standard) of the spiked standards versus concentrations.
Peak plasma concentrations (Cmax) and the time to peak plasma concentration (Tmax) were determined directly from the plasma concentration data for each animal. The compound plasma concentration data were submitted to multi-exponential curve fitting using WinNonlin software. The area under the plasma concentration-time curve from 0 to t hours after dosing (AUC0-t, t=time of the last measurable plasma concentration) was calculated using the linear trapezoidal rule. The residual area extrapolated to infinity, determined as the final measured plasma concentration (Ct) divided by the terminal plasma elimination rate constant (β), was added to the AUC0-t to produce the total area under the curve (AUC0-∞). The apparent total plasma clearance (CLp) was calculated by dividing the administered dose by the AUC0-∞. Half-life (t1/2) was determined with the following calculation: t1/2=ln (2)/elimination rate constant. The initial volume of distribution (Vc) was calculated as the dose divided by the extrapolated concentration at time=0 (C0). The volume of distribution at steady state, Vss, was estimated as a product of the total plasma clearance (CLp) and the mean residence time (MRT); the terminal-phase volume of distribution, Vβ, was derived from the total plasma clearance value (CLp) divided by the terminal plasma elimination rate constant (β). Oral bioavailability (F) was calculated as the dose-normalized AUC0-∞ (AUC0-∞/D) from the oral dose divided by the corresponding dose normalized AUC0-∞ from intravenous dosing.

Bcl-xL protein = Bcl-xL protein (Homo sapiens (Human), UniProt Q07817); assay: TR-FRET binding assay, Bcl-xL; conditions: F-Bak peptide probe
Molt-4 cells = assay: Cell viability counter screen (CellTiter-Glo) in Molt-4 cells; assay type: cell-based; conditions: 24 hours, 10% Human Serum
Method in brief: (§1)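 3000 cells/well (0.1×10^6/mL) were treated with compound for 24 hours in 5% CO2. Viability read by CellTiter-Glo luminescence; Molt-4 (T-ALL) served as the counter screen to RS4;11 (ALL).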

RS4;11 cells = assay: Cell viability assay (CellTiter-Glo) in RS4;11 cells; assay type: cell-based; conditions: 24 hours, 10% Human Serum
Method in brief: as §1

[2] = IV (1 mg/kg), mouse plasma, individual mouse
[3] = PO (1 mg/kg), mouse plasma, individual mouse

Chain of Bcl-2 protein (P10415 other isoform, or with tags, fused parts or gaps): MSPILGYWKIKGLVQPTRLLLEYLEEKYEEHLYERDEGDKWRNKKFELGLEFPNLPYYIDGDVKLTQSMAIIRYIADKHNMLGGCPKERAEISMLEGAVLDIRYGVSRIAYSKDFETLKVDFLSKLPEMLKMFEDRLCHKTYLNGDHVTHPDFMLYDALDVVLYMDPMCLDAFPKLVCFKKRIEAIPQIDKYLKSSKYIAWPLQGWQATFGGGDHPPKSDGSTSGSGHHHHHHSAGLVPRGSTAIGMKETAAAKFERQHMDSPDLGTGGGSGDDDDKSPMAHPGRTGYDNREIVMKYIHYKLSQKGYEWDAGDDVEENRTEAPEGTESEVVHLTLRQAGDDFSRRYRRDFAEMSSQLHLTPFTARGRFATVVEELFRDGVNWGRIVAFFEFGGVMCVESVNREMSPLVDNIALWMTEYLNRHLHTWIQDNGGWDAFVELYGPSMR
Chain of Bcl-xL protein (Q07817 other isoform, or with tags, fused parts or gaps): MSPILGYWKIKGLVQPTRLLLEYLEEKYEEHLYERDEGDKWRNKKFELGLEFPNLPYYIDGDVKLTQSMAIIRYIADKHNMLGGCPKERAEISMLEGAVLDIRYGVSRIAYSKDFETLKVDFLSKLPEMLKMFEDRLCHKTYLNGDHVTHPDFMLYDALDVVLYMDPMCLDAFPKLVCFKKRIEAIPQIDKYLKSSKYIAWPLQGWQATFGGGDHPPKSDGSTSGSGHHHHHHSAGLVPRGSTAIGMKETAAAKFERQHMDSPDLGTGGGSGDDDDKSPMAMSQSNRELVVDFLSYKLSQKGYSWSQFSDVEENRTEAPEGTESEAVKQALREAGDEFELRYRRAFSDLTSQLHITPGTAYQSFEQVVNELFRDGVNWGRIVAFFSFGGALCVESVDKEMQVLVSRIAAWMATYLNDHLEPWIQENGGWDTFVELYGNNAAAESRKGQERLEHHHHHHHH

Compound: CO[C@@H]1CC[C@@H](CNc2ccc(S(=O)(=O)NC(=O)c3ccc(N4CCN5CC6=C(c7ccc(Cl)cc7)CC(C)(C)C[C@H]6OCCCOC[C@@H]5C4)cc3N3CCCOc4nc5[nH]ccc5cc43)cc2[N+](=O)[O-])OC1 [Example 25, 4-((4aS,10aR)-14-(4-chlorophenyl)-12,12-dimethyl-1,2,4a,5,8,9,10a,11,13,15-decahydro-7H,12H-benzo[f]pyrazino[2,1-c][1,8]dioxa[4]azacycloundecin-3(4H)-yl)-2-(3,4-dihydro-2H-pyrrolo[3′,2′:5,6]pyrido[2,3-b][1,4]oxazepin-1(7H)-yl)-N-((4-((((2S,5R)-5-methoxytetrahydro-2H-pyran-2-yl)methyl)amino)-3-nitrophenyl)sulfonyl)benzamide]
- pKi (Bcl-2 protein): 9.56
- AUC [1, 2]: 11200 ng·h/mL and 12900 ng·h/mL
- C0 [1, 2]: 5020 ng/mL and 3470 ng/mL
- CLP [1, 2]: 1.48 mL/min/kg
- MRT [1, 2]: 9.8 h
- VSS [1, 2]: 0.93 L/kg and 0.76 L/kg
- Vβ [1, 2]: 0.95 L/kg and 1.0 L/kg and 0.90 L/kg
- t1/2 [1, 2]: 7.9 h and 8.1 h
- Vβ ([1]; IV (1 mg/kg), mouse plasma, mean): 0.96 L/kg
- AUC [1, 3]: 4330 ng·h/mL and 4490 ng·h/mL
- Cmax [1, 3]: 279 ng/mL and 274 ng/mL
- half-life ([1]; male, iv, IV (1 mg/kg), individual mouse): 10 h
- half-life ([1]; male, po, PO (1 mg/kg), harmonic mean): 8.7 h
- half-life ([1]; male, po, PO (1 mg/kg), individual mouse): 8.7 h
- MRT ([1]; male, CD-1, IV (1 mg/kg), mouse plasma, individual mouse, read-out: MRT): 10 h
- clearance ([1]; male, CD-1, IV (1 mg/kg), mouse plasma, mean, read-out: CLP (converted)): 1.28 mL/min/kg
- Tmax ([1]; male, CD-1, PO (1 mg/kg), mouse plasma, individual mouse): 4 h
- pKi (Bcl-xL protein): 7.87

Compound: C[C@@H]1CO[C@@H](CNc2ccc(S(=O)(=O)NC(=O)c3ccc(N4CCN5CC6=C(c7ccc(Cl)cc7)CC(C)(C)C[C@H]6OCCCOC[C@@H]5C4)cc3N3CCCOc4nc5[nH]ccc5cc43)cc2[N+](=O)[O-])CO1 [Example 6, 4-((4aS,10aR)-14-(4-chlorophenyl)-12,12-dimethyl-1,2,4a,5,8,9,10a,11,13,15-decahydro-7H,12H-benzo[f]pyrazino[2,1-c][1,8]dioxa[4]azacycloundecin-3(4H)-yl)-2-(3,4-dihydro-2H-pyrrolo[3′,2′:5,6]pyrido[2,3-b][1,4]oxazepin-1(7H)-yl)-N-((4-((((2S,5R)-5-methyl-1,4-dioxan-2-yl)methyl)amino)-3-nitrophenyl)sulfonyl)benzamide]
- pKi (Bcl-2 protein): 9.36
- pEC50 (Molt-4 cells): 5.72
- pEC50 (RS4;11 cells): 8.81
- pKi (Bcl-xL protein): 8.25

Compound: CC1(C)CC(c2ccc(Cl)cc2)=C2CN3CCN(c4ccc(C(=O)NS(=O)(=O)c5ccc(OCC6CCOCC6)c([N+](=O)[O-])c5)c(N5CCCOc6nc7[nH]ccc7cc65)c4)C[C@H]3COCCCO[C@@H]2C1 [Example 46, 4-((4aS,10aR)-14-(4-chlorophenyl)-12,12-dimethyl-1,2,4a,5,8,9,10a,11,13,15-decahydro-7H,12H-benzo[f]pyrazino[2,1-c][1,8]dioxa[4]azacycloundecin-3(4H)-yl)-2-(3,4-dihydro-2H-pyrrolo[3′,2′:5,6]pyrido[2,3-b][1,4]oxazepin-1(7H)-yl)-N-((3-nitro-4-((tetrahydro-2H-pyran-4-yl)methoxy)phenyl)sulfonyl)benzamide]
- pKi (Bcl-2 protein): 9.69
- pEC50 (Molt-4 cells): < 5.00
- pEC50 (RS4;11 cells): 8.03
- pKi (Bcl-xL protein): 7.66
